Data: PubChem BioAssay (NCI)
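Dose response: 5 concentrations. Exposure: 48 h. Format: 96-well plates. Endpoint: linear interpolation; highest concentration if not reached. At the GI50, growth is halved. TGI: total growth inhibition.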

Tests used:
Test in all cases: inhibition of tumour cell growth, NCI panel, 48 h
LOX IMVI melanoma = test system: LOX IMVI melanoma
SF-268 CNS = test system: SF-268 CNS
OVCAR-8 ovarian = test system: OVCAR-8 ovarian
SK-MEL-2 melanoma = test system: SK-MEL-2 melanoma
OVCAR-4 ovarian = test system: OVCAR-4 ovarian
UO-31 renal = test system: UO-31 renal
HT29 colon = test system: HT29 colon
SNB-75 CNS = test system: SNB-75 CNS
OVCAR-3 ovarian = test system: OVCAR-3 ovarian
HOP-92 NSCLC = test system: HOP-92 NSCLC

| Compound | GI50 (LOX IMVI melanoma) | TGI (LOX IMVI melanoma) | GI50 (SF-268 CNS) | TGI (SF-268 CNS) | GI50 (OVCAR-8 ovarian) | TGI (OVCAR-8 ovarian) | GI50 (SK-MEL-2 melanoma) | TGI (SK-MEL-2 melanoma) | GI50 (OVCAR-4 ovarian) | TGI (OVCAR-4 ovarian) | GI50 (UO-31 renal) | TGI (UO-31 renal) | GI50 (HT29 colon) | TGI (HT29 colon) | GI50 (SNB-75 CNS) | TGI (SNB-75 CNS) | GI50 (OVCAR-3 ovarian) | TGI (OVCAR-3 ovarian) | GI50 (HOP-92 NSCLC) | TGI (HOP-92 NSCLC) |
| --- | --- | --- | --- | --- | --- | --- | --- | --- | --- | --- | --- | --- | --- | --- | --- | --- | --- | --- | --- | --- |
| O=P(O)(O)OC1C(OP(=O)(O)O)C(OP(=O)(O)O)C(OP(=O)(O)O)C(OP(=O)(O)O)C1OP(=O)(O)O (stereo unspecified) | > 2000 µM | > 2000 µM | > 2000 µM | > 2000 µM | > 2000 µM | > 2000 µM | > 2000 µM | > 2000 µM | > 100 µM | > 2000 µM | > 2000 µM | > 2000 µM | > 2000 µM | > 2000 µM | > 1120 µM | > 2000 µM | > 2000 µM | > 2000 µM | > 100 µM | > 1880 µM |
| COC1OC(OC)C2C(c3c(C)cc(C)cc3C)=NOC12 (stereo unspecified) |  | > 100 µM |  | > 100 µM |  | > 100 µM |  | > 100 µM |  | > 100 µM |  | > 100 µM |  | > 100 µM |  | > 100 µM |  | > 100 µM |  | > 100 µM |
| CCC12C=CCN3CC[C@]4(C(=C(C(=O)OC)[C@@H]1Nc1ncnc5c1ncn5C1OC(COC(C)=O)C(OC(C)=O)C1OC(C)=O)Nc1ccccc14)C32 (stereo partly specified) |  | 3.25 µM |  | 5.11 µM |  | 4.67 µM |  | 9.36 µM |  | 5.23 µM |  | 13.2 µM |  | 4.88 µM |  | 7.03 µM |  | 4.3 µM |  | 9.02 µM |
| COc1ccc(/C=C2/SC(=Nc3c(C)nn(-c4ccccc4)c3N)NC2=O)cc1 | 3.88 µM | 15.8 µM | 4.84 µM | 35.7 µM | 13.7 µM | 77.9 µM | 3.99 µM | 17.2 µM | 8.21 µM | > 100 µM | 2.83 µM | 19 µM | 3.8 µM | 16.6 µM | 3.43 µM | 26.7 µM | 2.6 µM | 5.9 µM | 1.4 µM | 14.4 µM |
| CC(C)(O)Cn1c(=O)c(Oc2ccc(F)cc2F)cc2cnc(NC3CCOCC3)nc21 | > 25 µM | > 25 µM | > 25 µM | > 25 µM | > 25 µM | > 25 µM | > 25 µM | > 25 µM | > 25 µM | > 25 µM | > 25 µM | > 25 µM | > 25 µM | > 25 µM | > 22.3 µM | > 25 µM | > 25 µM | > 25 µM | 7.79 µM | > 25 µM |
| COc1cc(-c2cc(-c3ccc(N(C)C)cc3)nc(N3CCC(O)CC3)c2C#N)cc(OC)c1OC | 0.0455 µM | 0.205 µM | 1.22 µM | 5.31 µM | 0.485 µM | > 45.7 µM | 0.37 µM | 1.07 µM | 1.21 µM | > 100 µM | 0.349 µM | 3.34 µM | 0.272 µM | 1.43 µM | 0.457 µM | 10.1 µM | 1.46 µM | 3.97 µM | 0.182 µM | 0.788 µM |
| CCc1nc(N)nc(N)c1-c1ccc(Cl)cc1 | 2.82 µM | > 100 µM | 6.89 µM | > 100 µM |  | > 100 µM |  | > 100 µM | 60 µM | > 100 µM | 14.5 µM | > 100 µM |  | > 100 µM | > 100 µM | > 100 µM | 36.3 µM | > 100 µM | 17.4 µM | > 100 µM |
| COc1c(O)c2ccccc2c2cc(O)ccc12 |  | 7.53 µM |  | 28.8 µM |  | 15.4 µM |  | 11.9 µM |  | 22.8 µM |  | 11.4 µM |  | 47.4 µM |  | 22.7 µM |  | 19.2 µM |  | 24.3 µM |
| CCOC(=O)c1cnc2ccc(Cl)cc2c1NCCCN(C)C | 14.1 µM | 34.1 µM | 19.9 µM | 94 µM | 11.6 µM | 47 µM | 29.1 µM | 62.6 µM | 23.6 µM | > 100 µM | 16.3 µM | 57 µM | 14.1 µM | 52.6 µM | 0.684 µM | 77.2 µM | 28.1 µM | 97.7 µM | 20.3 µM | 98.4 µM |
| NC(=O)C/C=C/CC(N)=O |  | > 100 µM |  | > 100 µM |  | > 100 µM |  | > 100 µM |  | > 100 µM |  | > 100 µM |  | > 100 µM |  | > 100 µM |  | > 100 µM |  | > 100 µM |
| COC(=O)C1=CC(=O)C(C(=O)Nc2ccc(OC)cc2)C(c2ccccc2)O1 (stereo unspecified) |  | > 72.9 µM |  | 37.3 µM |  | 96.8 µM |  | > 100 µM |  | > 77.9 µM |  | 90.6 µM |  | > 100 µM |  | 43.1 µM |  | 58.8 µM |  | 48.1 µM |
| CCN(CC)CCN(C)CC(C)(C)C(=O)/C=C/c1ccccc1 |  | 24 µM |  | 27.2 µM |  | 43.2 µM |  | 24.2 µM |  | 24.3 µM |  | 26.2 µM |  | 24.9 µM |  | 18.3 µM |  | 26.2 µM |  | 18.1 µM |
| CN(C)C1(C#N)CCC2(CC1)OCCO2 |  | > 100 µM |  | > 100 µM |  | > 100 µM |  | > 100 µM |  | > 100 µM |  | > 100 µM |  | > 100 µM |  | > 100 µM |  | > 100 µM |  | > 100 µM |
| CN(C)CCCn1cnc2ncccc2c1=O |  | > 100 µM |  | > 100 µM |  | > 100 µM |  | > 100 µM |  | > 100 µM |  | > 100 µM |  | > 100 µM |  | > 100 µM |  | > 100 µM |  | > 100 µM |
| O=C(Nc1ccc(Cl)c(Cl)c1)Nc1ccc(Cl)c([N+](=O)[O-])c1 | 1.03 µM | 3.81 µM | 1.76 µM | 6.84 µM | 1.44 µM | 8.91 µM | 1.14 µM | 5.5 µM | 0.768 µM | 8.01 µM | 0.83 µM | 2.92 µM | 1.24 µM | 4.82 µM | 4.74 µM | 24.4 µM | 0.889 µM | 3.66 µM | 0.66 µM | 2.07 µM |
| O=c1c(Cl)nsnc1Cl |  | 27.2 µM |  | 71.3 µM |  | > 91.6 µM |  | > 100 µM |  | 49.4 µM |  | 74.5 µM |  | 60.2 µM |  | > 53.1 µM |  | 17.1 µM |  | 13 µM |
| COc1ccc(NC(=O)CC/C(CC(=O)c2ccco2)=N/Nc2ccc([N+](=O)[O-])cc2[N+](=O)[O-])cc1 |  | > 100 µM |  | > 100 µM |  | > 100 µM |  | > 100 µM |  | > 100 µM |  | > 100 µM |  | > 100 µM |  | > 100 µM |  | > 100 µM |  | > 100 µM |
| CCOP1(=O)OCC2OC(n3cnc4c(N)ncnc43)C(O)C2O1 (stereo unspecified) |  | > 100 µM |  | > 100 µM |  | > 100 µM |  | > 100 µM |  | > 100 µM |  | > 100 µM |  | > 100 µM |  | > 100 µM |  | > 100 µM |  | > 100 µM |
| C#Cc1cccc(NC(=O)Nc2ccccc2NC(=O)CCl)c1 | 13.3 µM | 25.6 µM | 15.2 µM | 43.2 µM | 27.1 µM | > 82.5 µM | 22 µM | 63.9 µM | 16 µM | 41 µM | 11.1 µM | 21.6 µM | 27.6 µM | > 82.5 µM | 9.11 µM | 19.8 µM | 13.5 µM | 25.5 µM | 14.8 µM | 44 µM |
| COc1ccc(C(=O)c2cc3c(N)c(C(=O)Nc4cccc(Cl)c4)sc3nc2C)cc1 | 2.39 µM | > 33.3 µM | 2.49 µM | > 33.3 µM | 1.89 µM | > 33.3 µM | 11.2 µM | > 33.3 µM | 9.48 µM | > 33.3 µM | 2.5 µM | > 33.3 µM | 1.2 µM | > 33.3 µM | 0.743 µM | 2.75 µM | 1.01 µM | 3.12 µM | 30.7 µM | > 33.3 µM |
| CC[C@]1(O)C[C@@H]2CN(Cc3c([nH]c4ccccc34)[C@@](C(=O)OC)(c3cc4c(cc3OC)N(C)[C@H]3[C@@](O)(C(=O)OC)[C@H](OC(C)=O)[C@]5(CC)[C@@H]6C[C@@H]6CN6CC[C@]43[C@@H]65)C2)C1 | 0.0304 µM | > 4.38 µM | 0.148 µM | > 4.38 µM | 0.318 µM | > 4.38 µM | 0.033 µM | > 4.38 µM | 0.666 µM | > 4.38 µM | > 3.59 µM | > 4.38 µM | 0.0311 µM | > 4.38 µM | 0.0393 µM | > 4.38 µM | 0.0162 µM |  | 0.0314 µM | > 4.38 µM |
| COC(=O)C1=C(O)C(O)=C(C(=O)OC)CC1 |  | > 100 µM |  | > 100 µM |  | > 100 µM |  | > 100 µM |  | > 100 µM |  | > 100 µM |  | > 100 µM |  | > 100 µM |  | > 100 µM |  | > 100 µM |
| COc1ccc(CN(O)C2C(CO)OC(n3cc(I)c(=O)[nH]c3=O)C2O)cc1 (stereo unspecified) |  | > 100 µM |  | > 100 µM |  | > 100 µM |  | > 100 µM |  | > 100 µM |  | > 100 µM |  | > 100 µM |  | > 100 µM |  | > 100 µM |  | > 100 µM |
| [N-]=[N+]=Nc1ccc(S(=O)(=O)Oc2cc(OS(=O)(=O)c3ccc(N=[N+]=[N-])cc3)cc(OS(=O)(=O)c3ccc(N=[N+]=[N-])cc3)c2)cc1 |  | > 100 µM |  | > 100 µM |  | > 10 µM |  | > 100 µM |  | > 10 µM |  | > 100 µM |  | > 100 µM |  | > 10 µM |  | > 100 µM |  | > 100 µM |
